Data reported in US20060069132A1, “Azolecarboxamide herbicides” (priority 2004, published 2006).

Columns and labels:
[1] = system: lambsquarters; test: Test B pre-/postemergence herbicide test; format: in vivo, Chenopodium album
Summary of the method: (§1)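 Flooded paddy rice and barnyardgrass were treated at the 2-leaf stage; upland plantings received compound either on sown seed or on 1- to 4-leaf seedlings. All were kept 13–15 days in a greenhouse and scored visually, 0–100, relative to untreated plants.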

[2] = system: rice; test: Test B pre-/postemergence herbicide test; format: in vivo, Oryza sativa; settings: preemergence, 125 g ai/ha; 0 to 100 scale, 0 is no effect, 100 is complete control
Summary of the method: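 Evaluation is visual, comparing treated with control plants on a scale where 0 means no effect and 100 means full control. Treatments were preemergence, or postemergence on seedlings 2–18 cm tall, and held 13–15 days in the greenhouse.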

[3] = system: corn; test: Test B pre-/postemergence herbicide test; format: in vivo, Zea mays
Summary of the method: as §1

[4] = system: Surinam grass; test: Test B pre-/postemergence herbicide test; format: in vivo, Urochloa decumbens
Summary of the method: as §1

[5] = system: small flower umbrella sedge; test: Test B flooded paddy test; format: in vivo, Cyperus difformis; settings: 1000 g ai/ha, visual rating, scale 0 to 100 (0 no effect, 100 complete control), 13 to 15 days
Summary of the method: (§2)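 Treated at 2-leaf (paddy) or 1–4-leaf, 2–18 cm (postemergence); greenhouse 13–15 d; visual score vs control, 0 none to 100 complete control; dash = not tested.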

[6] = system: wild oat; test: Test B postemergence herbicide test; format: in vivo, Avena fatua; settings: scale 0 (no effect) to 100 (complete control)
Summary of the method: (§3)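 Visual ratings, 0 (no effect) to 100 (complete control), made versus controls after 13–15 d greenhouse. Paddy plants treated at 2-leaf stage; postemergence plants at 1- to 4-leaf stage, 2–18 cm tall.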

[7] = system: wheat; test: Test B postemergence herbicide test; format: in vivo, Triticum aestivum; parameters: key to Wheat plant response rating: 0 = no effect, 100 = complete control; settings: scale 0 (no effect) to 100 (complete control)
Summary of the method: as §3

[8] = system: morningglory; test: Test A pre-/postemergence herbicide test; format: in vivo, Ipomoea spp.
Summary of the method: (§4)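 Visual injury rating on a 0–100 scale (0 no effect, 100 complete control) versus untreated controls, about ten days after treatment in greenhouse. Pre: directed soil spray onto seeded sandy loam. Post: spray to runoff on plants 2–10 cm tall at one- to two-leaf stage.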

[9] = system: redroot pigweed; test: Test A pre-/postemergence herbicide test; format: in vivo, Amaranthus retroflexus
Summary of the method: as §4

[10] = system: barnyardgrass; test: Test B flooded paddy test; format: in vivo, Echinochloa crus-galli; settings: 1000 g ai/ha, visual rating, scale 0 to 100 (0 no effect, 100 complete control), 13 to 15 days
Summary of the method: as §2

[11] = system: large crabgrass; test: Test B pre-/postemergence herbicide test; format: in vivo, Digitaria sanguinalis
Summary of the method: as §1

[12] = system: barnyardgrass; test: Test B pre-/postemergence herbicide test; format: in vivo, Echinochloa crus-galli
Summary of the method: (§5)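 Herbicidal effect was judged by eye on a 0–100 scale after plants stood 13 to 15 days in the greenhouse following pre- or postemergence treatment with surfactant-containing formulations.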

[13] = system: ducksalad; test: Test B flooded paddy test; format: in vivo, Heteranthera limosa; settings: 1000 g ai/ha, visual rating, scale 0 to 100 (0 no effect, 100 complete control), 13 to 15 days
Summary of the method: as §2

[14] = system: morningglory; test: Test B pre-/postemergence herbicide test; format: in vivo, Ipomoea coccinea
Summary of the method: as §5

[15] = system: giant foxtail; test: Test B pre-/postemergence herbicide test; format: in vivo, Setaria faberi
Summary of the method: as §1

[16] = system: giant foxtail; test: Test A pre-/postemergence herbicide test; format: in vivo, Setaria faberi
Summary of the method: as §4

[17] = system: large crabgrass; test: Test A pre-/postemergence herbicide test; format: in vivo, Digitaria sanguinalis
Summary of the method: as §4

[18] = system: velvetleaf; test: Test A pre-/postemergence herbicide test; format: in vivo, Abutilon theophrasti
Summary of the method: as §4

[19] = system: pigweed; test: Test B pre-/postemergence herbicide test; format: in vivo, Amaranthus retroflexus
Summary of the method: as §1

[20] = system: barnyardgrass; test: Test A pre-/postemergence herbicide test; format: in vivo, Echinochloa crus-galli
Summary of the method: as §4

[21] = system: velvetleaf; test: Test B pre-/postemergence herbicide test; format: in vivo, Abutilon theophrasti
Summary of the method: as §1

[22] = system: cocklebur; test: Test B pre-/postemergence herbicide test; format: in vivo, Xanthium strumarium
Summary of the method: as §5

[23] = system: blackgrass; test: Test B postemergence herbicide test; format: in vivo, Alopecurus myosuroides; settings: scale 0 (no effect) to 100 (complete control)
Summary of the method: as §2

[24] = system: rice; test: Test B flooded paddy test; format: in vivo, Oryza sativa; settings: 1000 g ai/ha, visual rating, scale 0 to 100 (0 no effect, 100 complete control), 13 to 15 days
Summary of the method: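 After treating 2-leaf paddy plants or 2–18 cm postemergence plants (1 to 4 leaves) with formulated chemical, researchers kept them in a greenhouse for 13–15 days. Effects were judged visually versus controls: 0 indicates none, 100 total control.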

[25] = Postemergence, 500 g ai/ha, visual rating after 13 to 15 days, scale 0 (no effect) to 100 (complete control)
[26] = postemergence, 125 g ai/ha, visual rating, scale 0 (no effect) to 100 (complete control)
[27] = preemergence, 125 g ai/ha, 0 to 100 scale, 0 is no effect, 100 is complete control
[28] = Preemergence, 500 g ai/ha, scale 0 to 100
[29] = Postemergence, 500 g ai/ha, visual rating after 13 to 15 days
[30] = postemergence, 125 g ai/ha, visual rating
[31] = Postemergence, 500 g ai/ha, 0 to 100 scale, 0 no effect, 100 complete control
[32] = Postemergence, 2000 g ai/ha, 0 to 100 scale, 0 no effect, 100 complete control
[33] = Preemergence, 500 g ai/ha, visual rating, 0 to 100 scale (0 no effect, 100 complete control)
[34] = Preemergence, 2000 g ai/ha, 0 to 100 scale, 0 no effect, 100 complete control

CCn1nc(C(C)(C)C)cc1C(=O)Nc1cccc(C(=O)OC)c1C [Compound 87]
Plant response rating, Lambsquarters [1, 25]: 0 | Lambsquarters plant response rating [1, 26]: 0 | Plant response rating, Lambsquarters [1, 27]: 70 | Plant response rating, Rice [2]: 0 | Plant response rating, Corn [3, 25]: 0 | Corn plant response rating [3, 28]: 0 | Corn plant response rating [3, 26]: 0 | Plant response rating, Corn [3, 27]: 0 | Plant response rating, Surinam Grass [4, 25]: 0 | Surinam Grass plant response rating [4, 26]: 0 | Plant response rating, Surinam Grass [4, 27]: 0 | Sedge, Umbrella plant response rating [5]: 80 | Plant response rating, Oat, Wild [6, 29]: 0 | Oat, Wild plant response rating [6, 30]: 0 | Plant response rating, Wheat [7, 29]: 0 | Wheat plant response rating [7, 30]: 0 | Morningglory plant response rating [8, 31]: 15 | Plant response rating, Morningglory [8, 32]: 20 | Morningglory plant response rating [8, 33]: 15 | Morningglory plant response rating [8, 34]: 15 | Pigweed plant response rating [9, 31]: 10 | Plant response rating, Pigweed [9, 32]: 35 | Pigweed plant response rating [9, 33]: 60 | Pigweed plant response rating [9, 34]: 95 | Barnyardgrass plant response rating [10]: 20 | Plant response rating, Crabgrass, Large [11, 25]: 60 | Crabgrass, Large plant response rating [11, 28]: 100 | Crabgrass, Large plant response rating [11, 26]: 0 | Plant response rating, Crabgrass, Large [11, 27]: 90 | Plant response rating, Barnyardgrass [12, 25]: 0 | Barnyardgrass plant response rating [12, 28]: 70 | Barnyardgrass plant response rating [12, 26]: 0 | Plant response rating, Barnyardgrass [12, 27]: 20 | Ducksalad plant response rating [13]: 20 | Plant response rating, Morningglory [14, 25]: 0 | Morningglory plant response rating [14, 26]: 0 | Plant response rating, Morningglory [14, 27]: 0 | Plant response rating, Foxtail, Giant [15, 25]: 0 | Foxtail, Giant plant response rating [15, 28]: 80 | Foxtail, Giant plant response rating [15, 26]: 0 | Plant response rating, Foxtail, Giant [15, 27]: 10 | Foxtail, Giant plant response rating [16, 31]: 20 | Plant response rating, Foxtail, Giant [16, 32]: 50 | Foxtail, Giant plant response rating [16, 33]: 35 | Foxtail, Giant plant response rating [16, 34]: 90 | Crabgrass, Large plant response rating [17, 31]: 20 | Plant response rating, Crabgrass, Large [17, 32]: 60 | Crabgrass, Large plant response rating [17, 33]: 90 | Crabgrass, Large plant response rating [17, 34]: 95 | Velvetleaf plant response rating [18, 31]: 10 | Plant response rating, Velvetleaf [18, 32]: 25 | Velvetleaf plant response rating [18, 33]: 25 | Velvetleaf plant response rating ([18]; Preemergence, 2000 g ai/ha, visual rating, 0 to 100 scale (0 no effect, 100 complete control)): 65 | Plant response rating, Pigweed [19, 25]: 0 | Pigweed plant response rating [19, 26]: 0 | Plant response rating, Pigweed [19, 27]: 40 | Barnyardgrass plant response rating [20, 31]: 15 | Plant response rating, Barnyardgrass [20, 32]: 55 | Barnyardgrass plant response rating [20, 33]: 55 | Barnyardgrass plant response rating [20, 34]: 90 | Plant response rating, Velvetleaf [21, 25]: 0 | Velvetleaf plant response rating [21, 26]: 0 | Plant response rating, Velvetleaf [21, 27]: 0 | Plant response rating, Cocklebur [22, 25]: 0 | Cocklebur plant response rating [22, 28]: 0 | Cocklebur plant response rating [22, 26]: 0 | Plant response rating, Cocklebur [22, 27]: 0 | Plant response rating, Blackgrass [23, 29]: 0 | Blackgrass plant response rating [23, 30]: 0 | Rice plant response rating [24]: 10
